The test system of one assay is MC38-OVA tumor. Kind of assay: MC38-OVA tumor growth and weight in Tim3fl.fl and Tim3fl.flxCD11c cre mice under inflammasome pathway inhibition. As to conditions: Tim-3cko mice, 8 mg/kg. Format: in vivo. An excerpt: FIGS. 4A-4W: Loss of Tim3 on DC promotes inflammasome activation. (FIG. 4A) Unidirectional analysis of the fraction of DCs expressing ligand X and the fraction of T cells expressing the cognate Receptor; Ligand (MigDC): Receptor (CD8) interaction from WT (left) and Tim3cko (right) tumors. (FIG. 4B) Bar plot of data from FIG. 4A. (FIG. 4C). ECDF plots showing enrichment of IL-18 signature and (FIG. 4D) IL-1 signature in WT and Tim3^ckoCD8+ TILs. (FIG. 4E) ECDF plot of enrichment score for inflammasome signature in WT or Tim3^cko migratory DC, (p=1.5*10^−03), (FIG. 4F) Dot plot of selected genes from inflammasome signature. (FIG. 4G) ECDF plot of enrichment score for Oxidative Stress signature, (FIG. 4H) Dot plot of selected genes from Oxidative Stress signature. (FIG. 4I) MC38-OVA (0.5×10^6 cells) were subcutaneously implanted into Tim3^fl.fl and Tim3^fl.flxCD11c cre mice and on D14 tumors mononuclear cells were isolated and incubated with DHR123 for 30 minutes followed by flow-cytometric analysis of activated DHR123 as a measure of ROS activity in tumor infiltrating DC. […]
The C57BL/6-derived colon carcinoma MC38 and MC38-OVAdim were maintained at 37° C. with 5% CO2 in DMEM medium supplemented with 10% heat-inactivated fetal calf serum, penicillin, and streptomycin and 1% Sodium Pyruvate. […] Tumor size was determined by the formula L×W where L=length, W=width on the indicated days. […]

In another assay the test system is IL-1β. Kind of assay: IL-1β levels in tumor supernatants of WT and Tim3cko animals with or without NAC. Particulars: Tim3cko tumors; NAC in drinking water 40 mM. The class given is in vivo, mice. An excerpt: (§1) To investigate the effect of oxidative stress in Tim3^cko tumor bearing animals the inventors implanted Tim3^fl.fl and Tim3^fl.flZbtb46 cre mice with MC38-OVAdim and treated with or without antioxidant N-Acetyl-Cysteine (NAC) for the duration of the experiment. […] To determine whether mitigation of oxidative stress in Tim3^cko tumors also affected IL-1β levels intratumorally, the inventors prepared tumor supernatants and determined the levels of IL-1β in WT and Tim3cko animals treated with or without NAC.
(§2) The C57BL/6-derived colon carcinoma MC38 and MC38-OVAdim were maintained at 37° C. with 5% CO2 in DMEM medium supplemented with 10% heat-inactivated fetal calf serum, penicillin, and streptomycin and 1% Sodium Pyruvate. The C57BL/6-derived melanoma cell lines-B16 and B16-OVA-transfected clone were maintained at 37° C. with 5% CO2 in RPMI medium supplemented with 10% heat-inactivated fetal calf serum, penicillin, and streptomycin. MC38- OVA^dim (0.5×10^6), B16F10/B16-OVA (0.25×10^6) and MC38 (1.0×10^6) cells were injected subcutaneously in 100 μl PBS on the flank. Tumor size was determined by the formula L×W where L=length, W=width on the indicated days. In some experiments, mice were treated with anti-IL-1β (B122) and anti-IL-18 (YIGIF74-1 G7) or appropriate control Hamster Ig and Rat IgG2a (all at 8 mg/kg) i.p. on days 3, 6, 9 post tumor implantation. […]

The next assay concerns MC38-OVAdim tumor. Kind of assay: MC38-OVAdim tumor growth and weight in Tim3fl.fl and Tim3fl.flZbtb46 cre mice with or without NAC. Particulars: Tim3cko mice, NAC daily in drinking water 40 mM. The class given is in vivo.
Text: as §1, §2

Turning to `CC(C)(O)c1coc(S(=O)(=O)[N-]C(=O)Nc2c3c(cc4c2CCC4)CCC3)c1.[Na+]` [CRID3], the “protective anti-tumor immunity observed in the Tim-3cko” value with MC38-OVA tumor was “abolished the protective anti-tumor immunity”.

For the compound `CC(=O)N[C@@H](CS)C(=O)O` [NAC, N-Acetyl-Cysteine], in the assay with IL-1β, the “elevated intratumoral IL-1β levels (tumor supernatants)” value is “completely reversed”. Besides, in the assay on MC38-OVAdim tumor, the “protective inhibition of tumor growth (tumor growth)” value was “completely abrogated” and the “protective inhibition of tumor growth (tumor weights post-harvest)” value is recorded as “completely abrogated”.

Source of the values: patent US20240262909A1, “TIM-3 MODULATES ANTI-TUMOR IMMUNITY BY REGULATING INFLAMMASOME ACTIVATION” (THE BRIGHAM AND WOMEN'S HOSPITAL, INC., priority 2021, published 2024).
